{"source": "ChEMBL document CHEMBL5465560", "about": "“Selectivity Literature for EUbOPEN Chemogenomic Library” (2024)", "key": {"[1]": {"target": "Microtubule-associated serine/threonine-protein kinase 1 (Homo sapiens) (UniProt Q9Y2H9)", "sequence (Q9Y2H9 whole entry, looked up)": "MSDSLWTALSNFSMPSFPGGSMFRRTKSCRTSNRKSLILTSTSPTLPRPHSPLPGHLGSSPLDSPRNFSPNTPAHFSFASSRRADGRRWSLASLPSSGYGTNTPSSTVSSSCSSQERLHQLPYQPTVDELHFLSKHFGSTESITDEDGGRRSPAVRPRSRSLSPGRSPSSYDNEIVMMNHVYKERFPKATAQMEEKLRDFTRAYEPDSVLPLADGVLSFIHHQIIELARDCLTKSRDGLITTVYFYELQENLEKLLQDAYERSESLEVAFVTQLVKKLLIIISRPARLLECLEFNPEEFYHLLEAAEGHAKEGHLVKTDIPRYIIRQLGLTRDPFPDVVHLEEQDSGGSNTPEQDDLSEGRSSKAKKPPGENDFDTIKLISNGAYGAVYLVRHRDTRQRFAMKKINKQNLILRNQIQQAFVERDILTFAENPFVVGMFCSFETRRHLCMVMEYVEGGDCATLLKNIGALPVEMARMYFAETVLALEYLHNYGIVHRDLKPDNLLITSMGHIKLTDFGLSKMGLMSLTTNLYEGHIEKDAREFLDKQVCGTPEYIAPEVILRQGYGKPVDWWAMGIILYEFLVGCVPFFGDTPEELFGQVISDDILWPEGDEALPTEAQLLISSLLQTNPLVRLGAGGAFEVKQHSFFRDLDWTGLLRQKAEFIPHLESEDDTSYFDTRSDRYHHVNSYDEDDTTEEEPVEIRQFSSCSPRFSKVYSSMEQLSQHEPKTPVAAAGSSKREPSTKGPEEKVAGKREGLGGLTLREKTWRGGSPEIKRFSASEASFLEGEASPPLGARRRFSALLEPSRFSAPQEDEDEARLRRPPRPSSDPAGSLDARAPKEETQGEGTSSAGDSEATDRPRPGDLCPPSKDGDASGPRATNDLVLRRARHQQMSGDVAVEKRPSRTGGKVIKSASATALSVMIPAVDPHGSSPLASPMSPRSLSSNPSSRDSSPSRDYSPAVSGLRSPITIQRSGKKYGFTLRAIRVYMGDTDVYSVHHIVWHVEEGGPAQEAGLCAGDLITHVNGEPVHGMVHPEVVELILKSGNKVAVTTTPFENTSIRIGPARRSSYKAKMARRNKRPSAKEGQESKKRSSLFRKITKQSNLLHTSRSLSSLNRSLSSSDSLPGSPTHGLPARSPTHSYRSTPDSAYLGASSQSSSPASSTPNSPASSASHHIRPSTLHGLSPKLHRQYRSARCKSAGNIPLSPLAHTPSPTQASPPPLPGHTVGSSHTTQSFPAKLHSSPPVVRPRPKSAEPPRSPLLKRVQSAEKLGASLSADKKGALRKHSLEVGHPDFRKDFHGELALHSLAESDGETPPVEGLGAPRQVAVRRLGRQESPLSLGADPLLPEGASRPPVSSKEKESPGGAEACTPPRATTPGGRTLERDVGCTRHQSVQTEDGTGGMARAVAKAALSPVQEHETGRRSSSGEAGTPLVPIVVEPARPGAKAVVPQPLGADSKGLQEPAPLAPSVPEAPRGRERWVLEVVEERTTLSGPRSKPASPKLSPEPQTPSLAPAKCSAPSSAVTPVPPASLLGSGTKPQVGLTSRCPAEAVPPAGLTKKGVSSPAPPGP", "assay": "Selectivity interaction (KinomeScan (DiscoverX)) EUB0000666a MAST1", "settings": "at 10 µM"}, "[2]": {"target": "SRSF protein kinase 3 (Homo sapiens) (UniProt Q9UPE1)", "assay": "Selectivity interaction (KinomeScan (DiscoverX)) EUB0000229b SRPK3", "settings": "at 10 µM"}, "[3]": {"target": "Bromodomain-containing protein 9 (Homo sapiens) (UniProt Q9H8M2)", "assay": "Selectivity interaction (Human bromodomain panel (DSF assay)) EUB0000233b BRD9"}, "[4]": {"target": "Amine oxidase [flavin-containing] A (Homo sapiens, UniProt P21397)", "sequence (P21397 whole entry)": "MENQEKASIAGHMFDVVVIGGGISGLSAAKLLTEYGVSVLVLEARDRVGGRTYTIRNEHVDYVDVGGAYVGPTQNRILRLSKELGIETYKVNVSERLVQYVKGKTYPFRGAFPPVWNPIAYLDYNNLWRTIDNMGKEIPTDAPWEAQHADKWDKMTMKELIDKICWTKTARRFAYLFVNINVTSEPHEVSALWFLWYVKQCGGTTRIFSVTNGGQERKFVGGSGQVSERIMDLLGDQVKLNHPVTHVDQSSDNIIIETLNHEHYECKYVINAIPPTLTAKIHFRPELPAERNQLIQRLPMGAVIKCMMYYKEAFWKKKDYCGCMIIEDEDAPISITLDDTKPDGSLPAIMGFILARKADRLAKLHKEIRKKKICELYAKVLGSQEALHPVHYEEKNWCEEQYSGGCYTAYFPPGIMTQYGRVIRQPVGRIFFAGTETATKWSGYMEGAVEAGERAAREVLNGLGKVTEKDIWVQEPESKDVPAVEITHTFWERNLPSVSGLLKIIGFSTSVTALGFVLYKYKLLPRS", "assay": "Selectivity interaction (Monoamine Oxidase A, human recombinant baculovirus ) EUB0000877a MAOA"}, "[5]": {"target": "ALK tyrosine kinase receptor (Homo sapiens, UniProt Q9UM73)", "sequence (Q9UM73 19-1620 limits assumed)": "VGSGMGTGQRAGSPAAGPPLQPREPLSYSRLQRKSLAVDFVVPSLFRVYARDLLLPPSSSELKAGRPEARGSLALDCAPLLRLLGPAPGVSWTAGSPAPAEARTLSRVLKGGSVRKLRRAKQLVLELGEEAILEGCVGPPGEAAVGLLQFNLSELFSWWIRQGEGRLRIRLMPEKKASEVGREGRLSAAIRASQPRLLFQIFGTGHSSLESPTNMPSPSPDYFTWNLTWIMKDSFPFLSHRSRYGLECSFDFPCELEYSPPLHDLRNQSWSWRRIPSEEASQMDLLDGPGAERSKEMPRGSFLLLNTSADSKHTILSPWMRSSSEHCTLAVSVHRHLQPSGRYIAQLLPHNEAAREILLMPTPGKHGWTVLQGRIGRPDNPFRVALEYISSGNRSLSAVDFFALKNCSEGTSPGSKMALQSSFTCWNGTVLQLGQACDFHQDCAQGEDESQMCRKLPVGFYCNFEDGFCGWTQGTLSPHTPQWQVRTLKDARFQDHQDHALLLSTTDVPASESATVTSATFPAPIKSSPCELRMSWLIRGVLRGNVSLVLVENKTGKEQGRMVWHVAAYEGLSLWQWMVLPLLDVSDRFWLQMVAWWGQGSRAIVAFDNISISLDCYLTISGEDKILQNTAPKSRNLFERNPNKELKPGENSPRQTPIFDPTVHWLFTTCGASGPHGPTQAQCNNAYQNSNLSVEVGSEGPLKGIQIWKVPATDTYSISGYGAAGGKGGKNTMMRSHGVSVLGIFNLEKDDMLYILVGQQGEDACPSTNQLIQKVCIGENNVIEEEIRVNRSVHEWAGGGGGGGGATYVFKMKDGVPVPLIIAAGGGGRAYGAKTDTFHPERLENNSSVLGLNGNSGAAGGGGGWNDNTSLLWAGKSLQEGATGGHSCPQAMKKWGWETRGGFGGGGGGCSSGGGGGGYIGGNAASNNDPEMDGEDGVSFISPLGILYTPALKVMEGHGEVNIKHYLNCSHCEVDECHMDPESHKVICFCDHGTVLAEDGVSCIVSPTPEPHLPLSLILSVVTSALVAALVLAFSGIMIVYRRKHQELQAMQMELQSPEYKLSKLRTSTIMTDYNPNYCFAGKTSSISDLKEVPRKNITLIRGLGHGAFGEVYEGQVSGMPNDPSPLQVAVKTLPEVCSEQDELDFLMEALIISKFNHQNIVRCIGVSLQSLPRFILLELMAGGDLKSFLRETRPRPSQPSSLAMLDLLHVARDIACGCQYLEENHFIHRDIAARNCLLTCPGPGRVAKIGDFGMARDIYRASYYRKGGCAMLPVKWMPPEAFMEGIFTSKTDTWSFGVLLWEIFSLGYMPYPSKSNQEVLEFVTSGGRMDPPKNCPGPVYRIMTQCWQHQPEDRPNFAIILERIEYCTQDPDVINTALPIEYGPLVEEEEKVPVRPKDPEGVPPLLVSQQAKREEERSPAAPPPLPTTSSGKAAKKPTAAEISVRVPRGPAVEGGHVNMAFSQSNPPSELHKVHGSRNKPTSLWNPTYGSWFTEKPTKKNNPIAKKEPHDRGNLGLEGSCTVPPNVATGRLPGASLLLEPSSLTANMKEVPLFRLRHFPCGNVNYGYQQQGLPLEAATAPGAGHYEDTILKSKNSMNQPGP", "settings": "at 10 µM"}, "[6]": {"target": "T1, Serine/threonine-protein kinase Nek9 (Homo sapiens) (UniProt Q8TD19)", "T1 sequence (whole entry)": "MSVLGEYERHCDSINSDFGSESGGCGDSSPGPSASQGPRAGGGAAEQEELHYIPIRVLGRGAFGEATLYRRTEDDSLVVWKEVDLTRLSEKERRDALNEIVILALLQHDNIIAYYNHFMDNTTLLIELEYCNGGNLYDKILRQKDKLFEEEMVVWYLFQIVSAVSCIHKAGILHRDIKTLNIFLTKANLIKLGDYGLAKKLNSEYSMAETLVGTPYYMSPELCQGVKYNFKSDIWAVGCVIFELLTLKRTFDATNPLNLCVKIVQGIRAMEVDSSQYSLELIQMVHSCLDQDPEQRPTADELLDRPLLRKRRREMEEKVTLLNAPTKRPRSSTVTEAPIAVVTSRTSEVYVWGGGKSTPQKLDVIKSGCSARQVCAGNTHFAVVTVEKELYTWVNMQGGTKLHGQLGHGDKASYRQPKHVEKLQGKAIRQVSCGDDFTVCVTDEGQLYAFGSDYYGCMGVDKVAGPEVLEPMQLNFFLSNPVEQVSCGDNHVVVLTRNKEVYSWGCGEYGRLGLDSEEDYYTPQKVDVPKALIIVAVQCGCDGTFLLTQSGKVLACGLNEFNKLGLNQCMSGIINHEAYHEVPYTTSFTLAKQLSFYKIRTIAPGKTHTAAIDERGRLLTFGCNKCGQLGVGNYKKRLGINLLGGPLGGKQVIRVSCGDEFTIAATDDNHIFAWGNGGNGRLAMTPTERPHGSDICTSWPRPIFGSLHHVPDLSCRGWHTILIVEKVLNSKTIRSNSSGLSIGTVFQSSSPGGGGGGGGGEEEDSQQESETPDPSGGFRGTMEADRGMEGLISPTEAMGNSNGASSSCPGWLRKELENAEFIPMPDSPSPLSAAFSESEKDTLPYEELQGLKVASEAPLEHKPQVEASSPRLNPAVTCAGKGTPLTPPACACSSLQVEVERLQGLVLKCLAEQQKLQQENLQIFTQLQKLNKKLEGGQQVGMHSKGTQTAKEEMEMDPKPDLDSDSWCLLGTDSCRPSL", "assay": "Selectivity interaction (ActivX KiNativ screen (kinase selectivity in THP-1 cell lysates)) EUB0000639a NEK9", "assay_type": "subcellular", "settings": "lysate, at 5 µM"}, "[7]": {"target": "Serine/threonine-protein kinase 33 (Homo sapiens) (UniProt Q9BYT3)", "assay": "Selectivity interaction (Kinase panel (Invitrogen)) EUB0000639a STK33", "settings": "at 200 nM"}, "[8]": {"test_system": "Epidermal growth factor receptor (Homo sapiens), P00533 [G719S]", "sequence (P00533 whole entry G719S)": "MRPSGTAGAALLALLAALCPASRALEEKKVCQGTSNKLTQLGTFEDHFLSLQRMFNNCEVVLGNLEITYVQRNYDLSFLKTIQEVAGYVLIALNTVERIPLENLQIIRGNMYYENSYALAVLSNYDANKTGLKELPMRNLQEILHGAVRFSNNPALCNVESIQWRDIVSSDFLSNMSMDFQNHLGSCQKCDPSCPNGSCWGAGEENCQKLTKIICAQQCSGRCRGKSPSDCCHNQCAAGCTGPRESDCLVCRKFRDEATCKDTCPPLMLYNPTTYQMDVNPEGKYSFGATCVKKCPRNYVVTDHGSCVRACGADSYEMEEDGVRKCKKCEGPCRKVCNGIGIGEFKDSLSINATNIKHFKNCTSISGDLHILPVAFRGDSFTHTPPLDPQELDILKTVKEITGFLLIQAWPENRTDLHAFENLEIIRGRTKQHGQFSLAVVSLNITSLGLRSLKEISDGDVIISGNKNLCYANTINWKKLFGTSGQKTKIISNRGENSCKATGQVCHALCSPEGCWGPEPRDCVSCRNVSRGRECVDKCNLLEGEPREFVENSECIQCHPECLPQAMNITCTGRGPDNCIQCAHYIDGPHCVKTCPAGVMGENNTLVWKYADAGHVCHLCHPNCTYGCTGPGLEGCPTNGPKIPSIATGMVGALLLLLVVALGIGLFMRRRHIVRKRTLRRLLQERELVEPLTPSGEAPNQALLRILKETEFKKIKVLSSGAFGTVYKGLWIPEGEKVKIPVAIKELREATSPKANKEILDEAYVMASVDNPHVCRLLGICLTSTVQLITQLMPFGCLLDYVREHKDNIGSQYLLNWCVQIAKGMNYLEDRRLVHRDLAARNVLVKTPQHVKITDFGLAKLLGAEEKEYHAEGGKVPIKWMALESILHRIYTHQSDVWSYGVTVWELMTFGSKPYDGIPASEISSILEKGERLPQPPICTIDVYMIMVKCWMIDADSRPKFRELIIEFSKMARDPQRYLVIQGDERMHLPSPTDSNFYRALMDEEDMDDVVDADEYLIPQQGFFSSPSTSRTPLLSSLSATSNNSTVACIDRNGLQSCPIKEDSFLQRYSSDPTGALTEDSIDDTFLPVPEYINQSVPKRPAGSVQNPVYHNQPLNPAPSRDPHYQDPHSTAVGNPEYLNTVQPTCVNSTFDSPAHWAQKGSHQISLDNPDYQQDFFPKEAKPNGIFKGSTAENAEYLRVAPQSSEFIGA", "settings": "at 10 µM"}, "[9]": {"target": "Cyclin-dependent kinase 2/cyclin A (Homo sapiens) (UniProt P24941+P20248+P78396)", "assay": "Selectivity interaction (SelectScreen profiling (Invitrogen)) EUB0000607a CDK2", "assay_type": "protein-complex assay", "settings": "at 2 µM"}, "[10]": {"target": "T2, Bone morphogenetic protein receptor type-2 (Homo sapiens) (UniProt Q13873)", "T2 sequence (whole entry)": "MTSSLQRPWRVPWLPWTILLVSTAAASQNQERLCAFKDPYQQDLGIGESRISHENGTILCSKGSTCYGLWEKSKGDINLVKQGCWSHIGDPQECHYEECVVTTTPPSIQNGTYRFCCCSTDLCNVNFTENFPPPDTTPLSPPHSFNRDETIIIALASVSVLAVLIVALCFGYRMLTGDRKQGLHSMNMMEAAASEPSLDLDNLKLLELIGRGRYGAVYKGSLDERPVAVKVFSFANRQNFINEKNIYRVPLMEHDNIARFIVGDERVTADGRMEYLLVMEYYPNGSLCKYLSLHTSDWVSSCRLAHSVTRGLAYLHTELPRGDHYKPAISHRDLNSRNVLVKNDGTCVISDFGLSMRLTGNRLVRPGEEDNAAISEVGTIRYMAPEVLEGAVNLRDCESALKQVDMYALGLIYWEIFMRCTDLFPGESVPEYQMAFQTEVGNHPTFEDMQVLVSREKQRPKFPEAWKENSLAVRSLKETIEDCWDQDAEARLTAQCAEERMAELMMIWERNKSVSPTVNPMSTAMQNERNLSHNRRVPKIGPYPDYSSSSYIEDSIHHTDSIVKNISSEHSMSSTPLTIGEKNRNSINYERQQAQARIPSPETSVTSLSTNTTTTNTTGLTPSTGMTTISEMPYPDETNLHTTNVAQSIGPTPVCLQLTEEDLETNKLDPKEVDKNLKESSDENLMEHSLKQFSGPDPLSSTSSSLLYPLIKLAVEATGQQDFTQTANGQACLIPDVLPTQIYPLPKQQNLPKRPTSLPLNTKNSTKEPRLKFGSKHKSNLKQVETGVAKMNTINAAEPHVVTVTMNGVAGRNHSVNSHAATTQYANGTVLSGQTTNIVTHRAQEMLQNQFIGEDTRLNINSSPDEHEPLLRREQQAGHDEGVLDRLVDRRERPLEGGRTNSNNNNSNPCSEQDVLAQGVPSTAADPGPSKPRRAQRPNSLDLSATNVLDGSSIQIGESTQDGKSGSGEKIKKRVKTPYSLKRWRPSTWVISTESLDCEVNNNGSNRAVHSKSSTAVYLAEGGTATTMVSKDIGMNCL", "assay": "Selectivity interaction (LanthaScreen Eu Kinase Binding Assay) EUB0001632a BMPR2", "settings": "at 10 µM"}}}
{"smiles": "O=C(NOC[C@H](O)CO)c1ccc(F)c(F)c1Nc1ccc(I)cc1F", "values": [{"measurement": "% of control", "setting": "[1]", "result": 100, "unit": "%"}]}
{"smiles": "COc1cc(N(C)c2ccnc3ccc(C(F)(F)F)cc23)cc(OC)c1OC", "values": [{"measurement": "% binding", "setting": "[2]", "result": 86, "unit": "%"}]}
{"smiles": "CN(C)CCCOc1ccc(-c2cc(NCCCn3cccn3)nc(S(C)(=O)=O)n2)cc1", "values": [{"measurement": "dTM", "setting": "[3]", "result": 4.8, "unit": "K"}]}
{"smiles": "CCC(=O)N1CC[C@H](Nc2ncnc3c2CN(c2cnc(OC)c(C(F)(F)F)c2)CC3)C1", "note": "[LENIOLISIB]", "values": [{"measurement": "IC50", "setting": "[4]", "result": "> 30", "unit": "µM"}]}
{"smiles": "CCN(CC)CCCCNc1ncc2cc(-c3cc(OC)cc(OC)c3)c(NC(=O)NC(C)(C)C)nc2n1", "values": [{"measurement": "% of control", "setting": "[5]", "result": 100, "unit": "%"}]}
{"smiles": "CC[C@@H]1[C@H](F)C(=O)N[C@@H]1COc1nccc2cc(C(N)=O)c(OC)cc12", "note": "[ZIMLOVISERTIB]", "values": [{"measurement": "% of inhibition", "setting": "[6]", "result": 8.8, "unit": "%"}, {"measurement": "% of inhibition", "setting": "[7]", "result": 6.96, "unit": "%"}]}
{"smiles": "Cc1cc([C@@H](C)Nc2ccccc2C(=O)O)c2nc(N3CCOCC3)cc(=O)n2c1", "note": "[AZD-6482]", "values": [{"measurement": "% of control", "setting": "[8]", "result": 98, "unit": "%"}]}
{"smiles": "CNC(=O)Nc1ccc(-c2nc(N3CC4CCC(C3)O4)c3cnn(C4CCC5(CC4)OCCO5)c3n2)cc1", "values": [{"measurement": "% of inhibition", "setting": "[9]", "result": 0, "unit": "%"}]}
{"smiles": "Cn1cc(-n2cnc3c(NCc4nc5cc(Cl)c(Cl)cc5[nH]4)nc(N4CCOCC4)nc32)cn1", "values": [{"measurement": "% of inhibition", "setting": "[10]", "result": -6.55, "unit": "%"}]}
